Reference: ChEMBL document CHEMBL5241112, “Insights into the recent progress in the medicinal chemistry of pyranopyrimidine analogs” (RSC Med Chem, 2022)
Values after ≈ are worked out from the molar mass of the structure shown.

Assays:
Bacillus cereus = assay: Antimicrobial activity against Bacillus cereus ATCC14579 assessed as diameter of inhibition zone at 20 mg/ml incubated for 24 hrs by disk diffusion method; type: functional; conditions: read-out: DIZ
Staphylococcus aureus [1] = assay: Antimicrobial activity against Staphylococcus aureus NCTC7447 assessed as diameter of inhibition zone at 20 mg/ml incubated for 24 hrs by disk diffusion method; type: functional; conditions: read-out: DIZ
Klebsiella pneumoniae = assay: Antimicrobial activity against Klebsiella pneumoniae UC57 assessed as diameter of inhibition zone at 20 mg/ml incubated for 24 hrs by disk diffusion method; type: functional; conditions: read-out: DIZ
Pseudomonas aeruginosa = assay: Antimicrobial activity against Pseudomonas aeruginosa ATCC 27853 assessed as diameter of inhibition zone at 20 mg/ml incubated for 24 hrs by disk diffusion method; type: functional; conditions: read-out: DIZ
Escherichia coli [2] = assay: Antimicrobial activity against Escherichia coli ATCC 14169 assessed as diameter of inhibition zone at 20 mg/ml incubated for 24 hrs by disk diffusion method; type: functional; conditions: read-out: DIZ
Alpha-glucosidase = Alpha-glucosidase (Saccharomyces cerevisiae S288c, UniProt P53341+P38158+P07265); assay: Inhibition of Saccharomyces cerevisiae alpha-glucosidase preincubated for 5 mins followed by PNP-GLUC substrate addition and measured after 20 mins by spectroscopic analysis; type: protein assay
Albumin = Albumin (Bos taurus, UniProt P02769); assay: […] bovine serum albumin denaturation incubated for 23 mins by UV-Visible spectrophotometry
Sequence of Albumin (P02769 whole entry): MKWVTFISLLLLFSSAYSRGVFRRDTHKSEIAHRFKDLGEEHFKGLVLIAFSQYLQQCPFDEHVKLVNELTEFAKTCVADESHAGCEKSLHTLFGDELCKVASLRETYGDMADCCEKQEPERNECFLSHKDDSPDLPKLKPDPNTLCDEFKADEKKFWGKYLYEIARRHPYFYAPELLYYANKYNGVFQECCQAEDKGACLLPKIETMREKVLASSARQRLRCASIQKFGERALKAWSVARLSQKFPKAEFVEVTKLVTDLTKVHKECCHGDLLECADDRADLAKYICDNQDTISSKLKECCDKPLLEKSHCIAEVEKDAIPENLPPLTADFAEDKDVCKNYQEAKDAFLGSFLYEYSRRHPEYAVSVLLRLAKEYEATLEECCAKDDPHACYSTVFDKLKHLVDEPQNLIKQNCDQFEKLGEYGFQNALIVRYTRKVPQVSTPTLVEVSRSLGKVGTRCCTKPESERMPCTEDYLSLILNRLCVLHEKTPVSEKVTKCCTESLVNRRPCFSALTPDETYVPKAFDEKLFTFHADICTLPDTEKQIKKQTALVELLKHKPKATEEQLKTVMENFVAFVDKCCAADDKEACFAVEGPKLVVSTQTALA

[3] = Inhibition of porcine pancreatic alpha-amylase preincubated for 10 mins followed by substrate starch addition and measured after 10 mins by colorimetric analysis; parameters: species or system Sus scrofa
Homo sapiens = species: Homo sapiens; assay: Anticoagulant activity in human plasma assessed as activated partial thromboplastin time at 1000 ug/ml incubated for 4 mins; type: functional; conditions: dose 1000 µg/ml
Staphylococcus aureus [4] = assay: Antibacterial activity against Staphylococcus aureus assessed as diameter of inhibition zone; type: functional
Bacillus subtilis = assay: Antibacterial activity against Bacillus subtilis assessed as diameter of inhibition zone; type: functional
Escherichia coli [5] = assay: Antibacterial activity against Escherichia coli assessed as diameter of inhibition zone; type: functional
Salmonella typhimurium = assay: Antibacterial activity against Salmonella typhimurium assessed as diameter of inhibition zone; type: functional, Salmonella enterica subsp. enterica serovar Typhimurium
[6] = Antioxidant activity assessed as DPPH radical scavenging activity incubated for 20 mins by spectrophotometric analysis; type: functional; parameters: concentration or dose not given beside the values
[7] = Antioxidant activity assessed as hydroxyl radical scavenging activity incubated for 5 mins by spectrophotometric analysis; type: functional; parameters: concentration or dose not given beside the values
[8] = test system: Mycobacterium tuberculosis; assay: Antitubercular activity against Mycobacterium tuberculosis H37Rv assessed as bacterial growth inhibition incubated for 24 hrs by MABA assay; type: functional
HCT-116 [9] = assay: Anticancer activity against human HCT-116 cells assessed as reduction in cell viability incubated for 96 hrs by MTT assay; type: functional, cell-based; conditions: HCT-116, 96 h
MCF7 [10] = assay: cells; conditions: Homo sapiens, MCF7, 48 h
HepG2 = assay: Anticancer activity against human HepG2 cells assessed as reduction in cell viability; type: functional, cell-based
MCF7 [11] = assay: Anticancer activity against human MCF7 cells assessed as reduction in cell viability; type: functional, cell-based
HCT-116 [12] = assay: cells; conditions: Homo sapiens

`COc1ccccc1C1C(C#N)=C(N)Oc2[nH]c(=O)[nH]c(=O)c21` (stereo unspecified) showed a zone of inhibition at 20000 µg/mL (Bacillus cereus) of 11 mm, a zone of inhibition at 20000 µg/mL (Staphylococcus aureus [1]) of 15 mm and a zone of inhibition at 20000 µg/mL (Klebsiella pneumoniae) of 13 mm. For the same compound, the zone of inhibition at 20000 µg/mL (Pseudomonas aeruginosa) was 7 mm and the zone of inhibition at 20000 µg/mL (Escherichia coli [2]) was 9 mm.

For `COc1ccc(C2C(C(=O)N3CCCCC3)=C(c3ccccc3O)Oc3[nH]c(=S)[nH]c(=O)c32)cc1` (stereo unspecified), the IC50 (Alpha-glucosidase) was 5223 µM, the IC50 (Albumin) was 18.1 µM and the IC50 [3] was 16.1 µM.

In the case of `Cc1nc2c3c(ncn2n1)OC1=C(C(=O)CC(C)(C)C1)C3c1ccccc1` (stereo unspecified), the Time (Homo sapiens) is reported as 60.1 s.

With `N#CC1=C(N)Oc2[nH]c(=O)[nH]c(=O)c2C1c1ccccc1Cl` (stereo unspecified) the “diameter of the inhibition zone (DIZ)” value (Staphylococcus aureus [4]) was 20 mm, the “diameter of the inhibition zone (DIZ)” value (Bacillus subtilis) was 18 mm and the “diameter of the inhibition zone (DIZ)” value (Escherichia coli [5]) was 14 mm. The “diameter of the inhibition zone (DIZ)” value (Salmonella typhimurium) was 18 mm.

Compound `O=c1[nH]c2c(c(=O)[nH]1)Oc1c(c(=O)oc3ccccc13)C2c1c(Cl)cccc1Cl` (stereo unspecified) has an Activity [6] of 71.2% and an Activity [7] of 65.4%.

`O=C(C1=C(c2ccccc2O)Oc2[nH]c(=S)[nH]c(=O)c2C1c1cc2ccccc2cc1O)N1CCCCC1` (stereo unspecified) showed an IC50 (Alpha-glucosidase) of 5337 µM, an IC50 (Albumin) of 20.1 µM and an IC50 [3] of 6.49 µM.

`O=c1nc2c3c([nH]1)Oc1ccc(O)cc1C3c1c(c3ccccc3oc1=O)O2` (stereo unspecified) showed an MIC [8] of 50 µg/mL (≈ 134 µM).

`Cc1ccc(C2C(C(=O)N3CCCCC3)=C(c3ccccc3O)Oc3[nH]c(=S)[nH]c(=O)c32)cc1` (stereo unspecified) showed an IC50 (Alpha-glucosidase) of 4000 µM, an IC50 (Albumin) of 19.5 µM and an IC50 [3] of 14.1 µM.

In the case of `COc1ccc2c(c1)C1c3c(nc(=O)[nH]c3O2)Oc2c1c(=O)oc1ccccc21` (stereo unspecified), the MIC [8] is reported as 50 µg/mL (≈ 129 µM).

Compound `O=c1nc2c3c([nH]1)Oc1ccccc1C3c1c(c3ccccc3oc1=O)O2` (stereo unspecified) has an MIC [8] of 12.5 µg/mL (≈ 34.9 µM).

Compound `Cc1cccc(-n2cnc3c(c2=N)C(c2ccccc2)C2=C(CC(C)(C)CC2=O)O3)c1` (stereo unspecified) has a Time (Homo sapiens) of 53.7 s.

`O=c1nc2c3c([nH]1)Oc1ccc4ccccc4c1C3c1c(c3ccccc3oc1=O)O2` (stereo unspecified) gave an MIC [8] of 25 µg/mL (≈ 61.2 µM).

For `CCc1ccc(-n2cnc3c(c2=N)C(c2ccccc2)C2=C(CC(C)(C)CC2=O)O3)cc1` (stereo unspecified), the Time (Homo sapiens) was 61.8 s.

With `CC1(C)CC(=O)C2=C(C1)Oc1ncn3ncnc3c1C2c1ccccc1` (stereo unspecified) the Time (Homo sapiens) was 59.4 s.

In the case of `COc1ccc(C2c3[nH]c(=O)[nH]c(=O)c3Oc3c2c(=O)oc2ccccc32)c(O)c1` (stereo unspecified), the Activity [6] is reported as 59.1% and the Activity [7] is reported as 54.3%.

`CN[C@@H]1C[C@H]2O[C@@](C)([C@@H]1OC)n1c3ccccc3c3c4c(c5c6ccccc6n2c5c31)C(=O)NC4` [STAUROSPORINE] gave an IC50 (HCT-116 [9]) of 6.94 µM.

In the case of `CC1(C)CC(=O)C2=C(C1)Oc1ncn3nc(CC#N)nc3c1C2c1ccccc1` (stereo unspecified), the Time (Homo sapiens) is reported as 63.4 s.

`COc1ccc(C2C(C#N)=C(N)Oc3[nH]c(=O)[nH]c(=O)c32)cc1OC` (stereo unspecified) showed a zone of inhibition at 20000 µg/mL (Bacillus cereus) of 9 mm, a zone of inhibition at 20000 µg/mL (Staphylococcus aureus [1]) of 8 mm and a zone of inhibition at 20000 µg/mL (Klebsiella pneumoniae) of 14 mm. The zone of inhibition at 20000 µg/mL (Pseudomonas aeruginosa) was 4 mm, the zone of inhibition at 20000 µg/mL (Escherichia coli [2]) was 8 mm and the “diameter of the inhibition zone (DIZ)” value (Bacillus subtilis) was 10 mm. For the same compound, the “diameter of the inhibition zone (DIZ)” value (Salmonella typhimurium) was 8 mm.

Work on `COc1cc(C2CC(=O)Oc3[nH]c(=O)[nH]c(=O)c32)cc(OC)c1OC` (stereo unspecified) yielded an IC50 (MCF7 [10]) of 8.9 µM.

In the case of `COc1ccc2c(-c3nc4c5c(ncn4n3)OC3=C(C(=O)CC(C)(C)C3)C5c3ccccc3)cc(=O)oc2c1` (stereo unspecified), the Time (Homo sapiens) is reported as 55.1 s.

Work on `CCO/C=N/C1=C(C#N)C(c2ccc(OC)cc2)c2c([nH]c(=O)[nH]c2=O)O1` (stereo unspecified) yielded an IC50 (HepG2) of 2.09 µM, an IC50 (MCF7 [11]) of 2.43 µM and an IC50 (HCT-116 [12]) of 2.61 µM.

For `N#CC1=C(N)Oc2[nH]c(=O)[nH]c(=O)c2C1c1ccccc1` (stereo unspecified), the zone of inhibition at 20000 µg/mL (Bacillus cereus) was 12 mm, the zone of inhibition at 20000 µg/mL (Staphylococcus aureus [1]) was 8 mm and the zone of inhibition at 20000 µg/mL (Klebsiella pneumoniae) was 5 mm. The zone of inhibition at 20000 µg/mL (Pseudomonas aeruginosa) was 14 mm, the zone of inhibition at 20000 µg/mL (Escherichia coli [2]) was 13 mm and the “diameter of the inhibition zone (DIZ)” value (Staphylococcus aureus [4]) was 8 mm. The “diameter of the inhibition zone (DIZ)” value (Bacillus subtilis) was 10 mm and the “diameter of the inhibition zone (DIZ)” value (Salmonella typhimurium) was 10 mm.

Work on `COc1ccc(C2C(C#N)=C(NC(C)=O)Oc3[nH]c(=O)[nH]c(=O)c32)cc1` (stereo unspecified) yielded an IC50 (HepG2) of 2.09 µM, an IC50 (MCF7 [11]) of 2.43 µM and an IC50 (HCT-116 [12]) of 2.61 µM.

With `O=c1nc2c3c([nH]1)Oc1cc(O)ccc1C3c1c(c3ccccc3oc1=O)O2` (stereo unspecified) the MIC [8] was 50 µg/mL (≈ 134 µM).
